Data: patent US10308689B2, “Dengue virus (DV) polypeptide sequences, T cell epitopes and methods and uses thereof” (LA JOLLA INSTITUTE FOR ALLERGY AND IMMUNOLOGY, priority 2010, dated 2019)
Ends that are not written are not given here.

Tested on: PBMC of healthy adult blood donors from Colombo, Sri Lanka
Test: Ex vivo IFNγ ELISPOT, HLA-matched PBMC of Sri Lankan blood donors
Format: cell-based, human
Set-up: Total Response per epitope: unit not given here
Settings: for # donors responded: number of donors responding to the epitope; for # of responders: responding donors, HLA allele(s); for T cell response [SFC]: ex vivo IFNγ SFC/10^6 PBMC
[1] = restricting HLA allele and serotype as given
[2] = total over responding donors, restricting HLA allele and serotype as given
[3] = IFNγ ELISPOT response summed over responding donors, per epitope
[4] = HLA-matched PBMC, proteome-wide screen
[5] = HLA allele, supertype and serotype
[6] = summed IFNγ ELISPOT response per epitope, HLA allele and serotype as given

## TLMAAILAY
[1]
  # donors responded: 1
[2]
  Total Response per epitope: 43.3

## CC[C@H](C)[C@H](N)C(=O)N[C@@H](C)C(=O)N[C@H](C(=O)N[C@@H](CO)C(=O)N[C@H](C(=O)N[C@@H](C)C(=O)N[C@@H](CC(N)=O)C(=O)N[C@H](C(=O)N[C@@H](Cc1ccccc1)C(=O)O)[C@@H](C)CC)[C@@H](C)O)C(C)C
[1]
  # donors responded: 2
[2]
  Total Response per epitope: 415.0

## CC[C@H](C)[C@H](NC(=O)[C@@H](NC(=O)[C@H](Cc1ccccc1)NC(=O)CNC(=O)[C@@H]1CCCN1C(=O)[C@@H](N)Cc1c[nH]cn1)[C@@H](C)O)C(=O)N[C@@H](CC(C)C)C(=O)N[C@@H](C)C(=O)N[C@@H](CC(C)C)C(=O)N[C@@H](Cc1ccccc1)C(=O)O
[1]
  # donors responded: 9
[2]
  Total Response per epitope: 3763.3

## NPNMIDKTPV
[3]
  Total Response per epitope: 376.7
[4]
  # donors responded: 2

## CC(C)C[C@H](NC(=O)CNC(=O)[C@H](C)NC(=O)CNC(=O)[C@H](C)NC(=O)[C@H](CC(C)C)NC(=O)[C@@H](N)Cc1ccc(O)cc1)C(=O)N[C@@H](C)C(=O)N[C@@H](Cc1ccccc1)C(=O)O
[5]
  # donors responded: 3
[6]
  Total Response per epitope: 340.0

## CC[C@H](C)[C@H](NC(=O)[C@H](Cc1ccc(O)cc1)NC(=O)CNC(=O)[C@H](CCCNC(=N)N)NC(=O)[C@H](C)NC(=O)[C@H](C)NC(=O)[C@@H](NC(=O)[C@H](CO)NC(=O)[C@H](C)NC(=O)[C@@H]1CCCN1)[C@@H](C)CC)C(=O)O
[3]
  Total Response per epitope: 611.7
[4]
  # donors responded: 2

## TPFGIIPAL
  # of responders: 1

## CC(C)[C@H](NC(=O)CNC(=O)[C@H](CO)NC(=O)[C@@H](N)CCC(N)=O)C(=O)N[C@@H](CC(=O)O)C(=O)N[C@H](C(=O)N[C@@H](Cc1ccccc1)C(=O)N[C@@H](Cc1ccccc1)C(=O)N[C@H](C(=O)N1CCC[C@H]1C(=O)O)[C@@H](C)O)C(C)C
[3]
  Total Response per epitope: 103.3
[4]
  # donors responded: 1

## CSCC[C@H](NC(=O)[C@H](CC(C)C)NC(=O)[C@H](CCCCN)NC(=O)[C@H](CCCCN)NC(=O)[C@@H](NC(=O)CNC(=O)[C@H](CCC(=O)O)NC(=O)[C@H](CCCCN)NC(=O)[C@@H]1CCCN1C(=O)[C@@H](N)CCC(=O)O)[C@@H](C)O)C(=O)O
[1]
  # donors responded: 3
[2]
  Total Response per epitope: 928.3

## CC[C@H](C)[C@H](NC(=O)[C@H](CO)NC(=O)[C@H](CC(C)C)NC(=O)[C@@H](NC(=O)[C@@H]1CCCN1C(=O)[C@@H](N)CO)[C@@H](C)CC)C(=O)N[C@H](C(=O)N[C@H](C(=O)N[C@@H](CO)C(=O)N[C@@H](CCC(=O)O)C(=O)O)[C@@H](C)CC)[C@@H](C)O
[3]
  Total Response per epitope: 1068.3
[4]
  # donors responded: 6

## CSCC[C@H](NC(=O)[C@H](CCC(N)=O)NC(=O)[C@H](C)NC(=O)[C@@H](N)Cc1ccc(O)cc1)C(=O)N[C@@H](Cc1c[nH]c2ccccc12)C(=O)N[C@@H](CO)C(=O)N[C@@H](CC(C)C)C(=O)N[C@@H](CCSC)C(=O)N[C@@H](Cc1ccc(O)cc1)C(=O)N[C@@H](Cc1ccccc1)C(=O)O
[3]
  Total Response per epitope: 33.3
[4]
  # donors responded: 1

## CC[C@H](C)[C@H](NC(=O)[C@@H](NC(=O)[C@H](CC(=O)O)NC(=O)[C@H](CCSC)NC(=O)[C@@H](NC(=O)[C@@H](NC(=O)CNC(=O)[C@H](CCCNC(=N)N)NC(=O)[C@@H]1CCCN1C(=O)[C@@H](N)[C@@H](C)O)[C@@H](C)O)C(C)C)[C@@H](C)CC)C(=O)O
[5]
  # donors responded: 1
[6]
  Total Response per epitope: 331.7

## CC[C@H](C)[C@H](NC(=O)[C@H](CCC(=O)O)NC(=O)[C@H](Cc1ccccc1)NC(=O)[C@@H]1CCCN1C(=O)[C@@H](NC(=O)[C@H](CCCCN)NC(=O)[C@H](CS)NC(=O)[C@@H]1CCCN1C(=O)[C@@H](N)CO)[C@@H](C)CC)C(=O)N[C@@H](CCSC)C(=O)O
[3]
  Total Response per epitope: 1156.0
[4]
  # donors responded: 5

## CSCC[C@H](NC(=O)[C@H](CC(C)C)NC(=O)[C@@H](NC(=O)[C@H](CCC(=O)O)NC(=O)[C@@H](N)CC(C)C)[C@@H](C)O)C(=O)N[C@@H](CC(C)C)C(=O)N[C@H](C(=O)N[C@@H](C)C(=O)N[C@@H](CC(C)C)C(=O)O)C(C)C [LETLMLVAL]
[3]
  Total Response per epitope: 103.3
[4]
  # donors responded: 1

## VPLLAMGCY
[5]
  # donors responded: 1
Per epitope
  T cell response [SFC]: 1083 SFC
  # of responders: 1
[6]
  Total Response per epitope: 1083.3

## IGIGVLLTW
[1]
  # donors responded: 1
[2]
  Total Response per epitope: 378.3

## CLIPTAMAF
[1]
  # donors responded: 1
Per epitope
  T cell response [SFC]: 67 SFC
  # of responders: 1
[2]
  Total Response per epitope: 66.7

## CC[C@H](C)[C@H](N)C(=O)N[C@H](C(=O)N[C@@H](CC(C)C)C(=O)N[C@@H](CCC(=O)O)C(=O)N[C@@H](Cc1ccccc1)C(=O)N[C@@H](Cc1ccccc1)C(=O)N[C@@H](CC(C)C)C(=O)N[C@@H](CCSC)C(=O)N[C@H](C(=O)O)C(C)C)[C@@H](C)CC
[1]
  # donors responded: 1
[2]
  Total Response per epitope: 143.3

## CSCC[C@H](NC(=O)[C@@H](NC(=O)[C@H](CCCNC(=N)N)NC(=O)CNC(=O)[C@H](CC(C)C)NC(=O)[C@H](CC(=O)O)NC(=O)[C@H](CCCNC(=N)N)NC(=O)[C@H](Cc1ccccc1)NC(=O)[C@H](CO)NC(=O)[C@@H](N)CCSC)C(C)C)C(=O)O
[3]
  Total Response per epitope: 3250.0
[4]
  # donors responded: 8
Per epitope
  T cell response [SFC]: 3250 SFC
  # of responders: 8

## CC[C@H](C)[C@H](NC(=O)[C@H](C)NC(=O)[C@H](Cc1ccc(O)cc1)NC(=O)[C@H](Cc1c[nH]cn1)NC(=O)[C@@H](NC(=O)[C@@H](NC(=O)[C@H](CC(C)C)NC(=O)[C@H](CC(C)C)NC(=O)[C@H](CC(C)C)NC(=O)[C@@H](N)C(C)C)C(C)C)[C@@H](C)O)C(=O)O
[5]
  # donors responded: 1
[6]
  Total Response per epitope: 40.0

## CC[C@H](C)[C@H](N)C(=O)NCC(=O)N[C@H](C(=O)NCC(=O)N[C@H](C(=O)N[C@@H](CC(C)C)C(=O)N[C@@H](CC(C)C)C(=O)N[C@H](C(=O)N[C@@H](Cc1c[nH]c2ccccc12)C(=O)O)[C@@H](C)O)[C@@H](C)CC)[C@@H](C)CC
[1]
  # donors responded: 1
[2]
  Total Response per epitope: 525.0

## IANOATVLM
Per epitope
  T cell response [SFC]: 1518 SFC
  # of responders: 7

## CC[C@H](C)[C@H](NC(=O)[C@H](C)NC(=O)[C@H](CC(C)C)NC(=O)[C@H](CS)NC(=O)[C@H](CC(C)C)NC(=O)[C@@H](NC(=O)CNC(=O)[C@H](CCSC)NC(=O)[C@@H](NC(=O)[C@@H](N)Cc1ccccc1)[C@@H](C)O)C(C)C)C(=O)O
[1]
  # donors responded: 1
[2]
  Total Response per epitope: 58.3

## REWCFTGERN
[3]
  Total Response per epitope: 1345.0
[4]
  # donors responded: 2

## CC[C@H](C)[C@H](NC(=O)[C@@H]1CCCN1C(=O)[C@H](C)NC(=O)[C@H](CC(N)=O)NC(=O)[C@H](CO)NC(=O)[C@H](CCC(N)=O)NC(=O)[C@@H]1CCCN1C(=O)[C@@H](N)Cc1ccccc1)C(=O)N[C@@H](CCSC)C(=O)N[C@@H](CC(=O)O)C(=O)O
[1]
  # donors responded: 4
[2]
  Total Response per epitope: 716.7

## DTTPFGOOR
Per epitope
  T cell response [SFC]: 3260 SFC
  # of responders: 8

## IANQAAILM
[1]
  # donors responded: 1
[2]
  Total Response per epitope: 58.3

## CC[C@H](C)[C@H](N)C(=O)N[C@@H](C)C(=O)N[C@@H](CC(N)=O)C(=O)N[C@@H](CCC(N)=O)C(=O)N[C@@H](C)C(=O)N[C@H](C(=O)N[C@H](C(=O)N[C@@H](CC(C)C)C(=O)N[C@@H](CCSC)C(=O)O)C(C)C)[C@@H](C)O
[1]
  # donors responded: 7
[2]
  Total Response per epitope: 1518.3
